The results in this text go back to patent publication US9725430B2, “Use of small molecule inhibitors targeting EYA tyrosine phosphatase” (Children's Hospital Medical Center, priority 2013, dated 2017).

For one assay, the target named is PTP1B (Homo sapiens (Human), UniProt P18031). The assay can be described thus: PTP1B-catalyzed pNPP hydrolysis. The settings on record: for IC50: pNPP substrate. The format is biochemical. The method, then: The catalytic domain of human Eya2 (“hEYA2(ED)”) was similarly sub-cloned as a polyhistidine fusion construct in the vector pDEST-527. Fusion protein was purified by NiNTA chromatography and followed by size-exclusion chromatography over a Superdex-75 column. The relative purity of protein samples was determined using SDS-PAGE. PTP1B was purified as described previously (Rayapureddi, J. P. et al. Nature 426, 295-298 (2003), incorporated by reference in its entirety).
(§1) An inhibitory assay was conducted using the previously described p-nitrophenylphosphate assay (Rayapureddi, J. P. et al. Nature 426, 295-298 (2003)). Briefly, ED was incubated in a reaction mixture containing 20 mM MES pH 6, 2 mM MgCl2, 125 μM inhibitor, 3.4 mM para-nitrophenol phosphate (pNPP) and 0.01 μg/μL enzyme.
PTP1B is a classical Cys-based tyrosine phosphatase.

A further assay deals with EYA3-SIX2 interaction (Homo sapiens (Human), UniProt Q99504). The assay can be described thus: His-SIX2 pull-down of EYA3 on Ni-NTA. The conditions noted are these: 50 μM compound, 15 minutes. The format is binding. An excerpt: Each point represents the mean and standard deviation of two independent readings. (C) Plots of Vmax and Km as a function of inhibitor concentration. […] The mixture was loaded on a Ni-NTA column. Beads were washed with 3 column volumes of load buffer (last washes, lanes 2 and 6). Proteins retained on the beads are shown in lanes 3 and 7. Lanes 4 and 8 are molecular weight markers.
One function of the catalytic domain of the EYAs is to mediate its interaction with the SIX proteins. This complex then translocates to the nucleus where the SIX-EYA complex can activate transcription.

For the next assay, the system named is MCF10A(EYA2) cells. The assay can be described thus: Transwell migration of MCF10A-EYA2 cells. The format is cell-based. The settings on record: 7.5 μM. The source says:
The tyrosine phosphatase activity of Eya3 and Eya2 promotes single cell motility in breast cancer cells (Pandey, R. N. et al. Oncogene (2010) 29:3715-3722, incorporated by reference in its entirety). EYA2 is over-expressed in breast cancers and is associated with increased metastasis and a poorer outcome (Farabaugh, et al. Oncogene (2011) 259). […] Overexpression of EYA2, but not the tyrosine-phosphatase dead mutant, promoted cell motility (FIG. 2a). […] This effect was dose-dependent (FIG. 2d) and compound (1a) was able to reduce cell motility by over 50% at the lowest concentration (1 μM) tested.
(§2) In order to determine whether EYA3 knock down would affect cell migration, a modified Boyden chamber assay was used to measure HUVEC migration. Briefly, human umbilical vein endothelial cells (HUVECs) were purchased from Lonza (Walkersville, Md.) and maintained in the endothelial cell growth medium (PromoCell, Hleidelberg, Germany), under a 5% CO2 atmosphere. MCF10A cells from ATCC were stably transfected with either pcDNA 3.2N5-DEST (vector control), V5-EYA2 or V5-EYA2(D250N). Transwell migration experiments were performed as previously described (Pandey, R. N. et al. Oncogene 29, 3715-3722, (2010)).

For another assay, the system named is HUVECs. The assay can be described thus: HUVEC transwell migration. The assay is classed as cell-based, human. The settings on record: 5 μM.
Text: as §2

In assay [1] the test system is developing zebrafish vasculature. The assay can be described thus: Zebrafish model of angiogenesis. The assay is classed as in vivo. The conditions noted are these: exposure from 5.25 hpf, analysis at 24 hpf; compound 1 at 0.25 μM. How it is done:
Embryos (FLK1-GFP trangenic) were maintained in fish water until the 50% epiboly stage (5.25 hpf) and were transferred into wells of 24-well plate containing the inhibitors in fish water. The analysis for vascular defects was performed after the 24 hpf stage, and embryos were imaged using a fluorescence microscope.
Transgenic fish expressing EGFP in endothelial cells (Tg(flk1:EGFP)) were used to facilitate visualization of the developing vasculature. In control experiments embryos were treated with 0.1% DMSO (vehicle). At the time of analyses (24 hpf) developing vessels normally migrated from the lateral plate mesoderm to the midline and formed the vascular cord, subsequently forming the dorsal aorta and the posterior cardinal vein and followed by the formation of intersegmental vessels at designated branch points (FIG. 6b).

In assay [2] the test system is A673 (Ewings sarcoma) cells. The assay can be described thus: Mouse xenograft model of Ewings sarcoma. The format is in vivo, nude mice. The settings on record: intra-peritoneal 25 mg/kg/day or intra-tumor. The method, then:
The affect of EYA inhibitors on a mouse xenograft model of Ewings sarcoma was tested. 5×10^6 A673 (Ewings sarcoma) cells in 0.1 ml sterile matrigel were injected subcutaneously into the dorsal flank region of nude mice. Approximately 5 days after injection, the tumors were about 100-300 mm^3. […] The dose for intra-peritoneal injections was 25 mg/kg/day. The tumor size was monitored every other day. Animals were sacrificed after 2 weeks, or when tumor volume approached 10% of animal weight.

A further assay addresses Eya3(ED) (Mus musculus (Mouse), UniProt P97480). The assay can be described thus: p-nitrophenylphosphate (pNPP) assay, catalytic domain of Eya3. The format is biochemical. The conditions noted are these: pNPP substrate.
Text: The catalytic domain of mouse Eya3 (“ED”, comprising residues 223-510 of Eya3) was purified as described by Rayapureddi, J. P. et al. (FEBS Lett 580, 3853-3859 (2006), incorporated by reference in its entirety). For full-length Eya3 (“hEYA3”), human Eya3 isoform 2 (representing the major species identified in human cell lines by mass spectrometry, expressed as residues 127-573 of NM_001990, isoform 1) was sub-cloned into pDEST565 to express a poly-histidine-Glutathione-S-transferase (His-GST) tagged fusion protein with a TVMV protease site. The protein was purified by glutathione-S-transferase affinity chromatography followed by TVMV cleavage, Ni-NTA chromatography, and finally size exclusion chromatography.
as §1
The compounds were then tested using full-length human recombinant, purified EYA3 and pNPP as a substrate. Compounds were dissolved in DMSO and diluted as needed. […] Reactions were incubated at 30° C. for 30 minutes and quenched with 100 mM EDTA pH 10. IC50 values were then calculated directly from regression curves using PRISM software. […]

In the next assay the test system is retinal vasculature. The assay can be described thus: Post-natal retinal angiogenesis in mice. The assay is classed as in vivo. How it is done: Next, retinal blood vessel density and angiogenic extension were studied using induced deletion of Eya3 in mice by PDGFB-icreERT2 starting at the day of birth. Isolectin labeled retinal blood vessels at postnatal day 5 in control Eya3fl/fl (FIGS. 8b and 8d) and experimental Eya3fl/fl; PDGFB-icreERT2 (FIGS. […]) mice. FIGS. 8d and 8e are magnified images of the regions indicated in 8b and 8c, respectively.
Next, treatment with an inhibitor of Eya3 was performed to test the effect on post-natal retinal angiogenesis. Briefly, 100 μM of compound 1a was injected into the eyes of post-natal mice, at P0.5 and P3. P5 retinas were then analyzed for effects on the retinal vasculature.

Chain of PTP1B (P18031 whole entry, species assumed, the tested form may be a part): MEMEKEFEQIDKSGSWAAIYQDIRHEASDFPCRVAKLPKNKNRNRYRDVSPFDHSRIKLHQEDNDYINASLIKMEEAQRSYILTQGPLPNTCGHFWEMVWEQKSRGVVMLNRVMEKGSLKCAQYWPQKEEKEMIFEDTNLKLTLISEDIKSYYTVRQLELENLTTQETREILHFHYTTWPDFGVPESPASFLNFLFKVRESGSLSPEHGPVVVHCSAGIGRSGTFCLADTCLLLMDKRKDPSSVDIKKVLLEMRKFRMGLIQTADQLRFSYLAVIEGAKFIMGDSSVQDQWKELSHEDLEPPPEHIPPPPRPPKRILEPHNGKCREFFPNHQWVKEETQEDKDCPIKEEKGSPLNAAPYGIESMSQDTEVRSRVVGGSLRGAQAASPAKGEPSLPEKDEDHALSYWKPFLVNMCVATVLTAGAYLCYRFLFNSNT
Chain of EYA3-SIX2 interaction (Q99504 whole entry, looked up, the tested form may be a part): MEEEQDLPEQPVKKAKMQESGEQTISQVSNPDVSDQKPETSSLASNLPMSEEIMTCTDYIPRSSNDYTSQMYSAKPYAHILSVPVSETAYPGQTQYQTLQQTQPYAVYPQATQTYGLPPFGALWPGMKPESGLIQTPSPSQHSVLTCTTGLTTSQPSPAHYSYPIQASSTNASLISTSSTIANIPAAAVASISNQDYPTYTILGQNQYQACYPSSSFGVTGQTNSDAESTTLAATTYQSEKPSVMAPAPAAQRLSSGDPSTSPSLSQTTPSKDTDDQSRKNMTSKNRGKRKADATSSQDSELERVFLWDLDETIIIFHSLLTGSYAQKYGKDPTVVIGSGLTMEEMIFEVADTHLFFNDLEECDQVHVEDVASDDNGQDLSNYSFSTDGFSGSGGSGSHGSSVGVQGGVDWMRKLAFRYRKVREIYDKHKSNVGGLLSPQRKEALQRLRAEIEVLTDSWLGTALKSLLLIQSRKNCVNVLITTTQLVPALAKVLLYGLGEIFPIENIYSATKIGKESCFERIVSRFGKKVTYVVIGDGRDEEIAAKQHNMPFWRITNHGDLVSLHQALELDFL
Chain of EYA3-SIX2 interaction (Q9NPC8 whole entry partner, looked up, the tested form may be a part): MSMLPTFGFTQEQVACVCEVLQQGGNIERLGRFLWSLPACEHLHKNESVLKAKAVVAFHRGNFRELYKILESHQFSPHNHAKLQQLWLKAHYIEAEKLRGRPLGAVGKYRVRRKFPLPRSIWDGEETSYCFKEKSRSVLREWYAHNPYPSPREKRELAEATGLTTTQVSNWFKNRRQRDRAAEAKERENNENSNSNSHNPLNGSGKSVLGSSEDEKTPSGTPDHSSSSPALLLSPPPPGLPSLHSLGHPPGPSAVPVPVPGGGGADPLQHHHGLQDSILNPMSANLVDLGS
Chain of Eya3(ED) (P97480 223-510): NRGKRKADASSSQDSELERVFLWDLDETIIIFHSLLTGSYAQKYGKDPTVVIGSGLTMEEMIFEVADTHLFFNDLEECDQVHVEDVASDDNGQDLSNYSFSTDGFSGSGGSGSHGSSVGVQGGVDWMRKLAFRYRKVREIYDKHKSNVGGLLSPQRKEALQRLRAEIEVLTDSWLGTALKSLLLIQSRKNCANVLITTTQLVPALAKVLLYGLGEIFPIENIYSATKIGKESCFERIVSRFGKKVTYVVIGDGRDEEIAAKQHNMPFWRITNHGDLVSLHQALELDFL

Take `CCc1oc2ccccc2c1C(=O)c1cc(Br)c(O)c(Br)c1` [Compound 1, Benzbromarone, reference compound]: the 50% inhibitory concentration (IC50) (in general, the point on the concentration scale where inhibition reaches its midpoint) against PTP1B was found to be 53.8 µM. The “EYA3-SIX2 interaction in presence of inhibitor” value on EYA3-SIX2 interaction is “unaffected”. In addition, the cell migration result with MCF10A(EYA2) cells is on record as “significantly inhibited cell migration”. Besides, the HUVEC cell motility entry with HUVECs was “attenuated HUVEC cell motility”. The “intersegmental vessels in zebrafish embryos” value in assay [1] is on record as “significant reduction of intersegmental vessels”. The tumor growth result in assay [2] was “able to reduce tumor growth”.

For the compound `CCc1oc2ccccc2c1C(=O)c1ccc(O)cc1` [Compound 1a], the values for the IC50 against Eya3(ED) and against PTP1B were 19.2 µM and above 150 µM, respectively. The “fold greater activity towards EYA3 than PTP1B” value at PTP1B (EYA3 vs PTP1B) is “over 100 fold”. Moreover, in the assay with MCF10A(EYA2) cells, the cell migration result is recorded as “significantly inhibited cell migration”. Further, the HUVEC cell motility result in the assay on HUVECs is reported as “attenuated HUVEC cell motility”. In addition, the “intersegmental vessels in zebrafish embryos” value in assay [1] is listed as “reduced the number of intersegmental vessels, but were less potent”. Also, the “retinal vasculature branch points” value in the assay with retinal vasculature (100 μM injected into eyes at P0.5 and P3, P5 retinas) is on record as “quantifiable decrease in branch points”. For the same compound, the “retinal angiogenesis in VEC-specific Eya3 knockout model” value in the assay on retinal vasculature (normal oxygen conditions) is recorded as “additional significant reduction in retinal angiogenesis”.
